{"source": "paper PMC7329812", "about": "(Scientific Reports, 2020)", "key": {"NaChBac": {"target": "NaChBac (Halalkalibacterium halodurans (Bacillus halodurans), UniProt Q9KCR8)", "sequence (Q9KCR8 1-274)": "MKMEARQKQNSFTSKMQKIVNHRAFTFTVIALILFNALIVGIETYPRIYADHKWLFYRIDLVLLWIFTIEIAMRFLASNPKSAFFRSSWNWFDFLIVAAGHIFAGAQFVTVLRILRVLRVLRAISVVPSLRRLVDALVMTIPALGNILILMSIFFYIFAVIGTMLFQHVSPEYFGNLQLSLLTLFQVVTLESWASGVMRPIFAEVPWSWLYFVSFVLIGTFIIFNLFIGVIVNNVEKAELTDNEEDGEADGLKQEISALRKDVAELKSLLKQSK", "experiment": "cell-based", "assay_type": "cell-based", "conditions": "for inhibition at 7 µM: HEK293, read-out: inhibition of WT NaChBac peak currents"}, "F224A NaChBac": {"test_system": "F224A NaChBac", "assay_type": "cell-based, Bacillus halodurans", "conditions": "for effect on F224A NaChBac channel currents: 7 µM"}, "F227A NaChBac": {"test_system": "F227A NaChBac", "assay_type": "cell-based, Bacillus halodurans"}, "human NaV1.7": {"target": "human NaV1.7 (Homo sapiens, UniProt Q15858)", "sequence (Q15858 whole entry)": "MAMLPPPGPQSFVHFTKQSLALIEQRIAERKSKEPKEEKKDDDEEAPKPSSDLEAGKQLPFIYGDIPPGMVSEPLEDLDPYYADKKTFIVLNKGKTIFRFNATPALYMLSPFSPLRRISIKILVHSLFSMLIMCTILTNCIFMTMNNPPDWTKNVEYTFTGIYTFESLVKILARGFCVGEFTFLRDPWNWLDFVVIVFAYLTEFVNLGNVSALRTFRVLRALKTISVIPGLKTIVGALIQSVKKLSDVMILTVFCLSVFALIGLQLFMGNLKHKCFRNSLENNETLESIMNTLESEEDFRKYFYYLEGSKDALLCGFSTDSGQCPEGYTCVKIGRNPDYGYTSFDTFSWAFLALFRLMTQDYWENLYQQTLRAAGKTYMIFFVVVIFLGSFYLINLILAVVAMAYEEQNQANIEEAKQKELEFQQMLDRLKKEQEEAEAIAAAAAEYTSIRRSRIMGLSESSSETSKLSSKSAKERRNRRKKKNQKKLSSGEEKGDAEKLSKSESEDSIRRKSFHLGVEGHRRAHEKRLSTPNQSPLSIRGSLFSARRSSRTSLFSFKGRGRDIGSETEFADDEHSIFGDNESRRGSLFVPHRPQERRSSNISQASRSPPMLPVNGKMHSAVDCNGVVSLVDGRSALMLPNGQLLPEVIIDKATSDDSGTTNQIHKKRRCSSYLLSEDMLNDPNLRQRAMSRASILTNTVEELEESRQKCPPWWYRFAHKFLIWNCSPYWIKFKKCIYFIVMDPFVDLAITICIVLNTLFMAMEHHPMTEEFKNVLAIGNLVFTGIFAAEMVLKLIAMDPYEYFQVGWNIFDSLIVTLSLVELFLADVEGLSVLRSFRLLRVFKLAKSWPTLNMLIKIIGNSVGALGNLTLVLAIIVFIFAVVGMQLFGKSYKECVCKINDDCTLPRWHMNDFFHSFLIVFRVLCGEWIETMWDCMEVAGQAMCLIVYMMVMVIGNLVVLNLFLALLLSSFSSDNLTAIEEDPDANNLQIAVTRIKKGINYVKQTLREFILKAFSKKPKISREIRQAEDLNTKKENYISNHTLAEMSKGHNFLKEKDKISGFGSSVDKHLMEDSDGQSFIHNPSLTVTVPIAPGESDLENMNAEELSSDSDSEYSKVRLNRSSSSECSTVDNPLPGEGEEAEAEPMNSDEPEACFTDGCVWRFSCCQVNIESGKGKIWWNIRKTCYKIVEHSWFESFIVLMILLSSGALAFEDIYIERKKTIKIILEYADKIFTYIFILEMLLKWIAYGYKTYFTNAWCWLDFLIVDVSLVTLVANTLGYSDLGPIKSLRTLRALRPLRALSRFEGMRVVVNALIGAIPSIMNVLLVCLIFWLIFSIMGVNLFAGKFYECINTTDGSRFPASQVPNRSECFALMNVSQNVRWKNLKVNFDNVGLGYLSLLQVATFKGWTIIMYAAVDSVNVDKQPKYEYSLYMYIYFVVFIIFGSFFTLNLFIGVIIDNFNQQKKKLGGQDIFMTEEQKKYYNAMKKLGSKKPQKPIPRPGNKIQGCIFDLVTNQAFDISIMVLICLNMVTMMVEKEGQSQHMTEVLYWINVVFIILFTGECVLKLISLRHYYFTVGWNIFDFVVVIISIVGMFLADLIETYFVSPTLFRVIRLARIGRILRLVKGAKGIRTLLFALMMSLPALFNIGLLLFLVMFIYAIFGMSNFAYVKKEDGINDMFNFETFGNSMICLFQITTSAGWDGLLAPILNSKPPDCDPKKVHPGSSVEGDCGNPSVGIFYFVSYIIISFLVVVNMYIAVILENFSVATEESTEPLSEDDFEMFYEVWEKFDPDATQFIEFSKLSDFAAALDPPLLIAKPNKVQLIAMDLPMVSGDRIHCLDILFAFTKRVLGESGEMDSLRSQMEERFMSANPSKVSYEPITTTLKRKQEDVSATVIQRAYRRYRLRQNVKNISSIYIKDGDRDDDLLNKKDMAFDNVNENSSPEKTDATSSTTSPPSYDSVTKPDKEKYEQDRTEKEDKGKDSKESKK", "experiment": "cell-based", "assay_type": "cell-based"}}, "note": "Read-outs that look alike come from different tables or passages of the source."}
{"compound": "COc1ccc(C(=O)O[C@H]2CC[C@@]3(C)[C@@H]4CC[C@H]5[C@]6(O)C[C@H](O)[C@@]7(O)[C@@H](CN8C[C@@H](C)CC[C@H]8[C@@]7(C)O)[C@]6(O)C[C@@]53O[C@]24O)cc1OC", "note": "[Veratridine]", "values": [{"measurement": "G–V slope factor k[n], NaChBac, after compound", "setting": "NaChBac", "value": "10.3 ± 0.3"}, {"measurement": "Hill slope, NaChBac dose-response", "setting": "NaChBac", "value": 0.3}, {"measurement": "effect on NaChBac channel currents", "setting": "NaChBac", "value": "significantly blocked peak inward Na^+ current"}, {"measurement": "ΔV1/2 of G–V curve, WT NaChBac", "setting": "NaChBac; 7 µM", "value": "7.7 ± 1.8", "unit": "mV"}, {"measurement": "inhibition at 7 µM", "setting": "NaChBac; 7 µM", "value": "55.6 ± 2", "unit": "%"}, {"measurement": "% of block in NaChBac", "setting": "NaChBac; hek 293 cells", "value": "65.6±3.2", "unit": "%"}, {"measurement": "IC50", "setting": "NaChBac; read-out: IC50 for NaChBac", "value": 8.1, "unit": "µM"}, {"measurement": "effect on F224A NaChBac channel currents", "setting": "F224A NaChBac", "value": "minimal or no block"}, {"measurement": "inhibition of F227A NaChBac peak currents", "setting": "F227A NaChBac; 7 µM", "value": "65.1 ± 1.7", "unit": "%"}, {"measurement": "ΔV1/2 of G–V curve, F227A NaChBac", "setting": "F227A NaChBac; 7 µM", "value": "20.1 ± 2.3", "unit": "mV"}]}
{"compound": "COc1ccc(CCN(C)CCCOc2nsc(-c3ccccc3)n2)cc1OC", "note": "[kc12291]", "values": [{"measurement": "% of block in NaChBac", "setting": "NaChBac; hek 293 cells", "value": "76.3±1.1", "unit": "%"}]}
{"compound": "QX-222", "values": [{"measurement": "% of block in NaChBac", "setting": "NaChBac", "value": "15.3±2.7", "unit": "%"}]}
{"compound": "Cc1cccc(C)c1NC(=O)CC12CCCN1CCC2", "note": "[Pilsicaineide]", "values": [{"measurement": "% of block in NaChBac", "setting": "NaChBac", "value": "50.5±2.7", "unit": "%"}]}
{"compound": "CCCCN1CCCCC1C(=O)Nc1c(C)cccc1C", "note": "(stereo not shown) [Bupivacaine]", "values": [{"measurement": "% of block in NaChBac", "setting": "NaChBac; hek 293 cells", "value": "46.6±2.9", "unit": "%"}]}
{"compound": "COc1cc(NC(=O)c2ccc(-c3ccc(Cl)cc3)o2)cc(OC)c1", "note": "[A-803467]", "values": [{"measurement": "% of block in NaChBac", "setting": "NaChBac", "value": "-6.3±4.1", "unit": "%"}, {"measurement": "effect on NaChBac channel currents", "setting": "NaChBac", "value": "no effects"}]}
{"compound": "ProTx-II", "values": [{"measurement": "% of block in NaChBac", "setting": "NaChBac", "value": "7.7±3.3", "unit": "%"}, {"measurement": "effect on NaChBac channel currents", "setting": "NaChBac", "value": "no effect"}]}
{"compound": "NC(=O)N1c2ccccc2CC(=O)c2ccccc21", "note": "[oxcarbazepine]", "values": [{"measurement": "% of block in NaChBac", "setting": "NaChBac; hek 293 cells", "value": "18.2±2.5", "unit": "%"}]}
{"compound": "NC1=N[C@H](O)[C@H]2[C@H]3O[C@]4(O)O[C@@H]([C@@H](O)[C@@]2(N1)[C@@H]4O)[C@]3(O)CO", "note": "[ttx, tetrodotoxin]", "values": [{"measurement": "% of block in NaChBac", "setting": "NaChBac", "value": "0.5±3.6", "unit": "%"}, {"measurement": "effect on NaChBac channel currents", "setting": "NaChBac", "value": "did not significantly alter currents"}]}
{"compound": "CC[N+](CC)(CC)CC(=O)Nc1c(C)cccc1C", "note": "[QX-314]", "values": [{"measurement": "% of block in NaChBac", "setting": "NaChBac; hek 293 cells", "value": "16.2±2.6", "unit": "%"}]}
{"compound": "CCN(CC)CC(=O)Nc1c(C)cccc1C", "note": "[Lidocaine]", "values": [{"measurement": "G–V slope factor k[n], NaChBac, after compound", "setting": "NaChBac", "value": "4.8 ± 0.4"}, {"measurement": "% of block in NaChBac", "setting": "NaChBac; hek 293 cells", "value": "74.1±2.3", "unit": "%"}, {"measurement": "G–V slope factor k[n], NaV1.7, after compound", "setting": "human NaV1.7", "value": "7.8 ± 0.2"}, {"measurement": "lidocaine block of F224A NaChBac channels versus WT", "setting": "F224A NaChBac", "value": "decreased but still robust block"}, {"measurement": "lidocaine block of F227A NaChBac channels versus WT", "setting": "F227A NaChBac", "value": "no change in block"}]}
{"compound": "CCN1C[C@]2(COC)[C@H](O)C[C@H](OC)[C@@]34[C@@H]5C[C@@]6(O)[C@H](OC(=O)c7ccccc7)[C@@H]5[C@@](OC(C)=O)([C@@H]([C@H](OC)[C@H]23)[C@@H]14)[C@@H](O)[C@@H]6OC", "note": "[Aconitine]", "values": [{"measurement": "G–V slope factor k[n], NaChBac, after compound", "setting": "NaChBac", "value": "5.0 ± 0.2"}, {"measurement": "Hill slope, NaChBac dose-response", "setting": "NaChBac", "value": 1.0}, {"measurement": "IC50", "setting": "NaChBac", "value": 1.3, "unit": "µM"}, {"measurement": "effect on NaChBac channel currents", "setting": "NaChBac", "value": "significantly blocked peak inward Na^+ current"}, {"measurement": "block of NaChBac channel", "setting": "NaChBac; 2 µM", "value": "~ 50%"}, {"measurement": "inhibition at 7 µM", "setting": "NaChBac; 7 µM", "value": "~80", "unit": "%"}, {"measurement": "G–V slope factor k[n], NaV1.7, after compound", "setting": "human NaV1.7", "value": "6.7 ± 0.2"}, {"measurement": "Hill slope, NaV1.7 dose-response", "setting": "human NaV1.7", "value": 1.6}, {"measurement": "IC50", "setting": "human NaV1.7", "value": 7.4, "unit": "µM"}, {"measurement": "block of NaV1.7 channel", "setting": "human NaV1.7; 7 µM", "value": "~ 50%"}, {"measurement": "effect on F224A NaChBac channel currents", "setting": "F224A NaChBac", "value": "no effect"}, {"measurement": "effect on F227A NaChBac channel currents", "setting": "F227A NaChBac; 7 µM", "value": "reduced effect"}]}
{"compound": "Nc1c(Br)cc(Br)cc1CN[C@H]1CC[C@H](O)CC1", "note": "[Ambroxol]", "values": [{"measurement": "G–V slope factor k[n], NaChBac, after compound", "setting": "NaChBac", "value": "5.7 ± 0.6"}, {"measurement": "effect on NaChBac channel currents", "setting": "NaChBac", "value": "robust inhibition"}, {"measurement": "% of block in NaChBac", "setting": "NaChBac; hek 293 cells", "value": "93.6±3.8", "unit": "%"}, {"measurement": "G–V slope factor k[n], NaV1.7, after compound", "setting": "human NaV1.7", "value": "6.7 ± 0.2"}, {"measurement": "effect on NaV1.7 channel currents", "setting": "human NaV1.7", "value": "robust inhibition"}]}
{"compound": "C[C@H](NCc1ccc(OCc2ccccc2F)cc1)C(N)=O", "note": "[Ralfinamide]", "values": [{"measurement": "% of block in NaChBac", "setting": "NaChBac; hek 293 cells", "value": "97.7±3.0", "unit": "%"}]}
{"compound": "COc1ccccc1OCC(O)CN1CCN(CC(=O)Nc2c(C)cccc2C)CC1", "note": "(stereo not shown) [Ranolazine]", "values": [{"measurement": "% of block in NaChBac", "setting": "NaChBac; hek 293 cells", "value": "42.5±4.3", "unit": "%"}]}
{"compound": "Cc1ccc(C(=O)C(C)CN2CCCCC2)cc1", "note": "(stereo not shown) [Tolperisone]", "values": [{"measurement": "% of block in NaChBac", "setting": "NaChBac; hek 293 cells", "value": "86.2±2.5", "unit": "%"}]}
{"compound": "Huwentoxin-IV", "values": [{"measurement": "% of block in NaChBac", "setting": "NaChBac", "value": "-6.7±2.9", "unit": "%"}]}
{"compound": "Cc1cccc(C)c1NC(=O)C1CCCCN1C", "note": "(stereo not shown) [Mepivacaine]", "values": [{"measurement": "% of block in NaChBac", "setting": "NaChBac; hek 293 cells", "value": "67.7±2.5", "unit": "%"}]}
{"compound": "Cc1cccc(C)c1OCC(C)N", "note": "(stereo not shown) [Mexiletine]", "values": [{"measurement": "% of block in NaChBac", "setting": "NaChBac; hek 293 cells", "value": "74.2±1.8", "unit": "%"}]}
{"compound": "ProTx-I", "values": [{"measurement": "% of block in NaChBac", "setting": "NaChBac", "value": "-2.0±3.0", "unit": "%"}]}
{"compound": "GSMTx-4", "values": [{"measurement": "% of block in NaChBac", "setting": "NaChBac", "value": "-5.1±3.0", "unit": "%"}]}
